Columns and labels:
Plasmodium falciparum [1] = experiment: Antiplasmodial activity against chloroquine-resistant Plasmodium falciparum FCR-3 infected in human erythrocytes assessed as inhibition of [3H]hypoxanthine uptake after 48 hrs; assay type: functional, organism-based
Plasmodium falciparum [2] = experiment: Ratio of chloroquine IC50 to compound IC50 for chloroquine-resistant Plasmodium falciparum FCR-3 infected in human erythrocytes; assay type: functional
Leishmania amazonensis [3] = experiment: Leishmanicidal activity against axenic amastigotes of Leishmania amazonensis by MTT assay; assay type: functional, organism-based
Leishmania amazonensis [4] = experiment: Ratio of amphotericin B IC50 to compound IC50 for axenic amastigotes of Leishmania amazonensis; assay type: functional
[5] = Cytotoxicity against mouse peritoneal macrophages after 48 hrs by trypan blue exclusion method; assay type: cell-based, Peritoneal macrophage cell
[6] = Selectivity index, ratio of CC50 for mouse peritoneal macrophages to IC50 for axenic amastigotes of Leishmania amazonensis; assay type: functional

CC(=O)Oc1ccccc1C(=O)Nc1c(C#N)[n+]([O-])c2cc(Cl)ccc2[n+]1[O-]
IC50 (Plasmodium falciparum [1]): 10.8 µM | Ratio IC50 (Plasmodium falciparum [2]): 36 | IC50 (Leishmania amazonensis [3]): 33.6 µM | Ratio IC50 (Leishmania amazonensis [4]): 168

N#Cc1c(NS(=O)(=O)c2ccc3ccccc3c2)[n+]([O-])c2ccc(Cl)cc2[n+]1[O-]
IC50 (Plasmodium falciparum [1]): > 23.4 µM | Ratio IC50 (Plasmodium falciparum [2]): >78 | IC50 (Leishmania amazonensis [3]): 20 µM | Ratio IC50 (Leishmania amazonensis [4]): 100 | CC50 at 48 h [5]: 88.6 µM | Ratio CC50/IC50 [6]: 4.4

CC(=O)Oc1ccccc1C(=O)Nc1c(C#N)[n+]([O-])c2cc(F)ccc2[n+]1[O-]
IC50 (Plasmodium falciparum [1]): 7.4 µM | Ratio IC50 (Plasmodium falciparum [2]): 25 | IC50 (Leishmania amazonensis [3]): 7.3 µM | Ratio IC50 (Leishmania amazonensis [4]): 36.5 | CC50 at 48 h [5]: 13.6 µM | Ratio CC50/IC50 [6]: 1.8

Cc1ccc2c(c1)[n+]([O-])c(C#N)c(NS(=O)(=O)c1ccc3ccccc3c1)[n+]2[O-]
IC50 (Plasmodium falciparum [1]): > 24.6 µM | Ratio IC50 (Plasmodium falciparum [2]): >82 | IC50 (Leishmania amazonensis [3]): 16.3 µM | Ratio IC50 (Leishmania amazonensis [4]): 81.5 | CC50 at 48 h [5]: > 246 µM | Ratio CC50/IC50 [6]: >15.1

CC(=O)Oc1ccccc1C(=O)Nc1c(C#N)[n+]([O-])c2cc(C)c(C)cc2[n+]1[O-]
IC50 (Plasmodium falciparum [1]): 59.4 µM | Ratio IC50 (Plasmodium falciparum [2]): 198 | IC50 (Leishmania amazonensis [3]): 17.6 µM | Ratio IC50 (Leishmania amazonensis [4]): 88 | CC50 at 48 h [5]: 12.5 µM | Ratio CC50/IC50 [6]: 0.7

CC(=O)Oc1ccccc1C(=O)Nc1c(C#N)[n+]([O-])c2cc(F)c(F)cc2[n+]1[O-]
IC50 (Plasmodium falciparum [1]): 36 µM | Ratio IC50 (Plasmodium falciparum [2]): 120 | IC50 (Leishmania amazonensis [3]): 14.8 µM | Ratio IC50 (Leishmania amazonensis [4]): 74 | CC50 at 48 h [5]: 10.5 µM | Ratio CC50/IC50 [6]: 0.7

N#Cc1c(NS(=O)(=O)c2ccccc2[N+](=O)[O-])[n+]([O-])c2ccc(Cl)cc2[n+]1[O-]
IC50 (Plasmodium falciparum [1]): 17.4 µM | Ratio IC50 (Plasmodium falciparum [2]): 58 | IC50 (Leishmania amazonensis [3]): 3.1 µM | Ratio IC50 (Leishmania amazonensis [4]): 15.5 | CC50 at 48 h [5]: 6.8 µM | Ratio CC50/IC50 [6]: 2.2

COc1ccc2c(c1)[n+]([O-])c(C#N)c(NC(=O)c1ccccc1OC(C)=O)[n+]2[O-]
IC50 (Plasmodium falciparum [1]): 27 µM | Ratio IC50 (Plasmodium falciparum [2]): 90 | IC50 (Leishmania amazonensis [3]): 42.4 µM | Ratio IC50 (Leishmania amazonensis [4]): 212

N#Cc1c(NS(=O)(=O)c2ccc([N+](=O)[O-])cc2)[n+]([O-])c2ccccc2[n+]1[O-]
IC50 (Plasmodium falciparum [1]): 20 µM | Ratio IC50 (Plasmodium falciparum [2]): 67 | IC50 (Leishmania amazonensis [3]): 86.3 µM | Ratio IC50 (Leishmania amazonensis [4]): 430

N#Cc1c(NS(=O)(=O)c2ccc([N+](=O)[O-])cc2)[n+]([O-])c2ccc(Cl)cc2[n+]1[O-]
IC50 (Plasmodium falciparum [1]): > 23.7 µM | Ratio IC50 (Plasmodium falciparum [2]): >79 | IC50 (Leishmania amazonensis [3]): 2.1 µM | Ratio IC50 (Leishmania amazonensis [4]): 10.5 | CC50 at 48 h [5]: 7.9 µM | Ratio CC50/IC50 [6]: 3.8

C[C@@H]1[C@H](O)[C@@H](C)/C=C/C=C/C=C/C=C/C=C/C=C/C=C/[C@H](O[C@@H]2O[C@H](C)[C@@H](O)[C@H](N)[C@@H]2O)C[C@@H]2O[C@](O)(C[C@@H](O)C[C@@H](O)[C@H](O)CC[C@@H](O)C[C@@H](O)CC(=O)O[C@H]1C)C[C@H](O)[C@H]2C(=O)O [AMPHOTERICIN B]
Ratio IC50 (Leishmania amazonensis [4]): 1 | CC50 at 48 h [5]: 4.4 µM

CC(=O)Oc1ccccc1C(=O)Nc1c(C#N)[n+]([O-])c2ccccc2[n+]1[O-]
IC50 (Plasmodium falciparum [1]): 41.4 µM | Ratio IC50 (Plasmodium falciparum [2]): 138 | IC50 (Leishmania amazonensis [3]): 112 µM | Ratio IC50 (Leishmania amazonensis [4]): 559

CCN(CC)CCCC(C)Nc1ccnc2cc(Cl)ccc12 (stereo not drawn) [CHLOROQUINE]
IC50 (Leishmania amazonensis [3]): 20 µM | CC50 at 48 h [5]: 88.6 µM

CC(=O)Oc1ccccc1C(=O)Nc1c(C#N)[n+]([O-])c2cc(C)ccc2[n+]1[O-]
IC50 (Plasmodium falciparum [1]): 52.8 µM | Ratio IC50 (Plasmodium falciparum [2]): 176 | IC50 (Leishmania amazonensis [3]): 18.8 µM | Ratio IC50 (Leishmania amazonensis [4]): 94 | CC50 at 48 h [5]: 21.7 µM | Ratio CC50/IC50 [6]: 1.1

N#Cc1c(NS(=O)(=O)c2ccc([N+](=O)[O-])cc2)[n+]([O-])c2cc(Cl)c(Cl)cc2[n+]1[O-]
IC50 (Plasmodium falciparum [1]): 18.7 µM | Ratio IC50 (Plasmodium falciparum [2]): 62 | IC50 (Leishmania amazonensis [3]): 15.9 µM | Ratio IC50 (Leishmania amazonensis [4]): 79.5 | CC50 at 48 h [5]: 89.1 µM | Ratio CC50/IC50 [6]: 5.6

Cc1cc2c(cc1C)[n+]([O-])c(NS(=O)(=O)c1ccc3ccccc3c1)c(C#N)[n+]2[O-]
IC50 (Plasmodium falciparum [1]): > 23.8 µM | Ratio IC50 (Plasmodium falciparum [2]): >79 | IC50 (Leishmania amazonensis [3]): > 100 µM | Ratio IC50 (Leishmania amazonensis [4]): >100

— ChEMBL document CHEMBL1806452, “New salicylamide and sulfonamide derivatives of quinoxaline 1,4-di-N-oxide with antileishmanial and antimalarial activities” (Bioorg Med Chem Lett, 2011)
